Reference: patent publication US20110213179A1, “METHOD OF EVALUATING EVENNESS OF SUPLATAST TOSILATE CRYSTAL, EVEN CRYSTAL, AND PROCESS FOR PRODUCING THE SAME” (TAIHO PHARMACEUTICAL CO., LTD., priority 2004, published 2011)

Assay: Stability test: crystals stored at 60° C. for three months, amount of decomposition products
Assay type: physicochemical
Experimental: Suplatast tosilate crystals of the present invention produced in Examples 3 and 4 (Lots A and B) and first-form suplatast tosilate crystals produced through the method described in Japanese Patent Publication (kokoku) No. 1991-70698 (Lots C, D, and E) (1.0 g for each Lot) were stored at 60° C. for three months for stability measurement. For reference, second-form suplatast tosilate crystals produced through the method described in JP-A-1995-252213 (Lot F) and third-form suplatast tosilate crystals produced through the method described in WO 02/083633 (Lot G) were subjected to stability measurement in a manner similar to that described above.
As is clear from Table 1, all the first-form crystals produced through the conventionally known production method undergo decomposition, but the crystals produced through the production method of the present invention undergo virtually no decomposition and are stable.

Row | Structure (SMILES) | Amount (%) of suplatast tosilate decomposition products produced at 60° C.: Decomposition product 2 (1 month) [%] | Amount (%) of suplatast tosilate decomposition products produced at 60° C.: Decomposition product 3 (1 month) [%] | Amount (%) of suplatast tosilate decomposition products produced at 60° C.: Decomposition product 1 (1 month, p-toluenesulfonate) [%] | Amount (%) of suplatast tosilate decomposition products produced at 60° C.: Total amount of decomposition products (1 month, p-toluenesulfonate) [%] | Amount (%) of suplatast tosilate decomposition products produced at 60° C.: Decomposition product 1 (2 months, p-toluenesulfonate) [%] | Amount (%) of suplatast tosilate decomposition products produced at 60° C.: Decomposition product 2 (2 months, p-toluenesulfonate) [%] | Amount (%) of suplatast tosilate decomposition products produced at 60° C.: Decomposition product 3 (2 months, p-toluenesulfonate) [%] | Amount (%) of suplatast tosilate decomposition products produced at 60° C.: Total amount of decomposition products (2 months, p-toluenesulfonate) [%] | Amount (%) of suplatast tosilate decomposition products produced at 60° C.: Decomposition product 1 (3 months, p-toluenesulfonate) [%] | Amount (%) of suplatast tosilate decomposition products produced at 60° C.: Decomposition product 2 (3 months, p-toluenesulfonate) [%] | Amount (%) of suplatast tosilate decomposition products produced at 60° C.: Decomposition product 3 (3 months, p-toluenesulfonate) [%] | Amount (%) of suplatast tosilate decomposition products produced at 60° C.: Total amount of decomposition products (3 months, p-toluenesulfonate) [%]
1 | CCOCC(O)COc1ccc(NC(=O)CC[S+](C)C)cc1.Cc1ccc(S(=O)(=O)[O-])cc1 (racemic) [First-form crystals Lot C, (±)-[2-[4-(3-ethoxy-2-hydroxypropoxy)phenylcarbamoyl]ethyl]dimethylsulfonium p-toluenesulfonate] | 0.0 | 0.0 | 0.1 | 0.1 | 0.6 | 0.3 | 0.2 | 1.1 | 1.3 | 0.4 | 0.4 | 2.1
2 | CCOCC(O)COc1ccc(NC(=O)CC[S+](C)C)cc1.Cc1ccc(S(=O)(=O)[O-])cc1 (racemic) [First-form crystals Lot D, (±)-[2-[4-(3-ethoxy-2-hydroxypropoxy)phenylcarbamoyl]ethyl]dimethylsulfonium p-toluenesulfonate] | 0.0 | 0.0 | 0.0 | 0.0 | 0.4 | 0.2 | 0.1 | 0.7 | 0.9 | 0.3 | 0.3 | 1.5
3 | CCOCC(O)COc1ccc(NC(=O)CC[S+](C)C)cc1.Cc1ccc(S(=O)(=O)[O-])cc1 (racemic) [First-form crystals Lot E, (±)-[2-[4-(3-ethoxy-2-hydroxypropoxy)phenylcarbamoyl]ethyl]dimethylsulfonium p-toluenesulfonate] | 0.0 | 0.0 | 0.0 | 0.0 | 0.3 | 0.1 | 0.1 | 0.5 | 0.9 | 0.2 | 0.3 | 1.4
4 | CCOCC(O)COc1ccc(NC(=O)CC[S+](C)C)cc1.Cc1ccc(S(=O)(=O)[O-])cc1 (racemic) [Invention crystals (Ex. 3), (±)-[2-[4-(3-ethoxy-2-hydroxypropoxy)phenylcarbamoyl]ethyl]dimethylsulfonium p-toluenesulfonate] | 0.0 | 0.0 | 0.0 | 0.0 | 0.0 | 0.0 | 0.0 | 0.0 | 0.0 | 0.0 | 0.0 | 0.0
5 | CCOCC(O)COc1ccc(NC(=O)CC[S+](C)C)cc1.Cc1ccc(S(=O)(=O)[O-])cc1 (racemic) [Invention crystals (Ex. 4), (±)-[2-[4-(3-ethoxy-2-hydroxypropoxy)phenylcarbamoyl]ethyl]dimethylsulfonium p-toluenesulfonate] | 0.0 | 0.0 | 0.0 | 0.0 | 0.0 | 0.0 | 0.0 | 0.0 | 0.0 | 0.0 | 0.0 | 0.0
6 | CCOCC(O)COc1ccc(NC(=O)CC[S+](C)C)cc1.Cc1ccc(S(=O)(=O)[O-])cc1 (racemic) [Second-form crystals (ref.), (±)-[2-[4-(3-ethoxy-2-hydroxypropoxy)phenylcarbamoyl]ethyl]dimethylsulfonium p-toluenesulfonate] | 0.0 | 0.0 | 0.0 | 0.0 | 0.0 | 0.0 | 0.0 | 0.0 | 0.1 | 0.1 | 0.0 | 0.2
7 | CCOCC(O)COc1ccc(NC(=O)CC[S+](C)C)cc1.Cc1ccc(S(=O)(=O)[O-])cc1 (racemic) [Third-form crystals (ref.), (±)-[2-[4-(3-ethoxy-2-hydroxypropoxy)phenylcarbamoyl]ethyl]dimethylsulfonium p-toluenesulfonate] | 0.0 | 0.0 | 0.0 | 0.0 | 0.0 | 0.0 | 0.0 | 0.0 | 0.0 | 0.0 | 0.0 | 0.0
